Assay results reported in US20260041653A1, “AN HDAC INHIBITOR FOR TREATING CANCER WITH A MODIFIED STK11 ACTIVITY OR EXPRESSION” (Tango Therapeutics, Inc., priority 2022, published 2026).

System: MC38_sgStk11 tumor
Experiment: Anti-tumor efficacy in murine subcutaneous MC38_sgStk11 tumor model
Format: in vivo, Mus musculus
Conditions: for T/C / TGI %: day 11
Procedure: Summary: An in vivo anti-tumor efficacy of double combination treatment of Anti-PD1 and HDAC1,2-selective inhibitor in a murine subcutaneous MC38_sgStk11 tumor model in […] mice was performed.
96 mice plus 39 spare mice of the species: Mus musculus: strain: C57BL/6; age 8-10 weeks; sex: female; and body weight: 16.9-20.0 g
The MC38_sgStk11 tumor cells were maintained in vitro as a monolayer culture in DMEM+2 mM glutamine supplemented with about 10% heat inactivated fetal bovine serum, about 100 U/ml penicillin and 100 μg/ml streptomycin at about 37° C. in an atmosphere of about 5% CO2 in air. The tumor cells were routinely sub-cultured twice weekly by trypsin-EDTA treatment. The cells growing in an exponential growth phase were harvested and counted for tumor inoculation.
Each mouse was inoculated subcutaneously at the right upper flank with MC38_sgStk11 tumor cells (0.5×106) in 0.1 ml of PBS for tumor development. Treatments were started on day 4 after tumor inoculation when the average tumor size reached 52 mm^3. The animals were assigned into groups according to a sorting standard operating procedures based upon their tumor volumes. Each group consisted of 8 tumor bearing mice. The testing article was administrated to the mice according to the predetermined regimen as shown in the experimental design table (Table 1-1).
All the procedures related to animal handling, care and the treatment in the study were performed according to the guidelines approved by the Institutional Animal Care and Use Committee (IACUC) of vendor following the guidance of the Association for Assessment and Accreditation of Laboratory Animal Care (AAALAC). At the time of routine monitoring, the animals were daily checked for any effects of tumor growth and treatments on normal behavior such as mobility, food and water consumption, body weight gain/loss (body weights were measured three times per week), eye/hair matting and any other abnormal effect as stated in the protocol. Death and observed clinical signs were recorded on the basis of the numbers of animals within each subset.
A primary endpoint was to see if the tumor growth could be delayed or mice could be cured. Tumor size was measured three times per week in two dimensions using a caliper, and the volume was expressed in mm3 using the formula: V=0.5 a×b2 where a and b are the long and short diameters of the tumor, respectively. The T/C value (in percent) is an indication of antitumor effectiveness; T and C are the mean volume of the treated and control groups, respectively, on a given day. TGI is calculated for each group using the formula: TGI (%)=[1−(Ti−T0)/(Vi−V0)]×100; Ti is the average tumor volume of a treatment group on a given day, T0 is the average tumor volume of the treatment group on the day of treatment start, Vi is the average tumor volume of the vehicle control group on the same day with Ti, and V0 is the average tumor volume of the vehicle group on the day of treatment start.
Statistical analysis of difference in the tumor volume among the groups were conducted on the data obtained at the best therapeutic time point at the day 11 after the start of treatment. A one-way ANOVA was performed for comparisons between groups. The survival analysis between groups was carried out with Kaplan-Meier test. p<0.05 was considered to be statistically significant.

[1] = Gr 2: Compound I 3 mg/kg PO QD + Anti-IgG2a 10 mg/kg IP BIW
[2] = Gr 3: Compound I 10 mg/kg PO QD + Anti-IgG2a 10 mg/kg IP BIW
[3] = Gr 4: Compound I 30 mg/kg PO QD + Anti-IgG2a 10 mg/kg IP BIW
[4] = Gr 5: Compound I 75 mg/kg PO QD + Anti-IgG2a 10 mg/kg IP BIW

## C[S@@](=N)(=O)c1ccc(C(=O)Nc2cc(-c3ccc(F)cc3)ccc2N)cc1 [Compound I, (R)—N-(4-amino-4′-fluoro-[1,1′-biphenyl]-3-yl)-4-(S-methylsulfonimidoyl)benzamide]
[1]
  CR (complete regression): 0.0%
  ORR (CR + PR): 0.0%
  PR (partial regression): 0.0%
  T/C: 98.7%
  TGI %: 1.3%
Gr 2: Compound I 3 mg/kg PO QD + Anti-IgG2a 10 mg/kg IP BIW, day 0 of treatment
  Tumor Volume: 52 ± 2 mm^3
Gr 2: Compound I 3 mg/kg PO QD + Anti-IgG2a 10 mg/kg IP BIW, day 2 of treatment
  Tumor Volume: 208 ± 6 mm^3
Gr 2: Compound I 3 mg/kg PO QD + Anti-IgG2a 10 mg/kg IP BIW, day 4 of treatment
  Tumor Volume: 489 ± 23 mm^3
Gr 2: Compound I 3 mg/kg PO QD + Anti-IgG2a 10 mg/kg IP BIW, day 7 of treatment
  Tumor Volume: 925 ± 98 mm^3
Gr 2: Compound I 3 mg/kg PO QD + Anti-IgG2a 10 mg/kg IP BIW, day 9 of treatment
  Tumor Volume: 1439 ± 130 mm^3
Gr 2: Compound I 3 mg/kg PO QD + Anti-IgG2a 10 mg/kg IP BIW, day 11 of treatment
  Tumor Volume: 2105 ± 184 mm^3
Gr 2: Compound I 3 mg/kg PO QD + Anti-IgG2a 10 mg/kg IP BIW, day 14 of treatment
  Tumor Volume: 2876 ± 196 mm^3
Gr 2: Compound I 3 mg/kg PO QD + Anti-IgG2a 10 mg/kg IP BIW, day 16 of treatment
  Tumor Volume: 3215 ± 79 mm^3
[2]
  CR (complete regression): 0.0%
  ORR (CR + PR): 0.0%
  PR (partial regression): 0.0%
  T/C: 65.8%
  TGI %: 35.0%
Gr 3: Compound I 10 mg/kg PO QD + Anti-IgG2a 10 mg/kg IP BIW, day 0 of treatment
  Tumor Volume: 52 ± 2 mm^3
Gr 3: Compound I 10 mg/kg PO QD + Anti-IgG2a 10 mg/kg IP BIW, day 2 of treatment
  Tumor Volume: 213 ± 10 mm^3
Gr 3: Compound I 10 mg/kg PO QD + Anti-IgG2a 10 mg/kg IP BIW, day 4 of treatment
  Tumor Volume: 473 ± 38 mm^3
Gr 3: Compound I 10 mg/kg PO QD + Anti-IgG2a 10 mg/kg IP BIW, day 7 of treatment
  Tumor Volume: 735 ± 82 mm^3
Gr 3: Compound I 10 mg/kg PO QD + Anti-IgG2a 10 mg/kg IP BIW, day 9 of treatment
  Tumor Volume: 1059 ± 167 mm^3
Gr 3: Compound I 10 mg/kg PO QD + Anti-IgG2a 10 mg/kg IP BIW, day 11 of treatment
  Tumor Volume: 1403 ± 270 mm^3
Gr 3: Compound I 10 mg/kg PO QD + Anti-IgG2a 10 mg/kg IP BIW, day 14 of treatment
  Tumor Volume: 1923 ± 343 mm^3
Gr 3: Compound I 10 mg/kg PO QD + Anti-IgG2a 10 mg/kg IP BIW, day 16 of treatment
  Tumor Volume: 2101 ± 176 mm^3
Gr 3: Compound I 10 mg/kg PO QD + Anti-IgG2a 10 mg/kg IP BIW, day 18 of treatment
  Tumor Volume: 2570 ± 205 mm^3
Gr 3: Compound I 10 mg/kg PO QD + Anti-IgG2a 10 mg/kg IP BIW, day 21 of treatment
  Tumor Volume: 3275 ± 64 mm^3
[3]
  CR (complete regression): 0.0%
  ORR (CR + PR): 0.0%
  PR (partial regression): 0.0%
  T/C: 49.5%
  TGI %: 51.8%
Gr 4: Compound I 30 mg/kg PO QD + Anti-IgG2a 10 mg/kg IP BIW, day 0 of treatment
  Tumor Volume: 52 ± 2 mm^3
Gr 4: Compound I 30 mg/kg PO QD + Anti-IgG2a 10 mg/kg IP BIW, day 2 of treatment
  Tumor Volume: 212 ± 14 mm^3
Gr 4: Compound I 30 mg/kg PO QD + Anti-IgG2a 10 mg/kg IP BIW, day 4 of treatment
  Tumor Volume: 484 ± 37 mm^3
Gr 4: Compound I 30 mg/kg PO QD + Anti-IgG2a 10 mg/kg IP BIW, day 7 of treatment
  Tumor Volume: 734 ± 64 mm^3
Gr 4: Compound I 30 mg/kg PO QD + Anti-IgG2a 10 mg/kg IP BIW, day 9 of treatment
  Tumor Volume: 883 ± 84 mm^3
Gr 4: Compound I 30 mg/kg PO QD + Anti-IgG2a 10 mg/kg IP BIW, day 11 of treatment
  Tumor Volume: 1055 ± 101 mm^3
Gr 4: Compound I 30 mg/kg PO QD + Anti-IgG2a 10 mg/kg IP BIW, day 14 of treatment
  Tumor Volume: 1481 ± 146 mm^3
Gr 4: Compound I 30 mg/kg PO QD + Anti-IgG2a 10 mg/kg IP BIW, day 16 of treatment
  Tumor Volume: 1977 ± 272 mm^3
Gr 4: Compound I 30 mg/kg PO QD + Anti-IgG2a 10 mg/kg IP BIW, day 18 of treatment
  Tumor Volume: 2344 ± 368 mm^3
Gr 4: Compound I 30 mg/kg PO QD + Anti-IgG2a 10 mg/kg IP BIW, day 21 of treatment
  Tumor Volume: 2602 ± 361 mm^3
Gr 4: Compound I 30 mg/kg PO QD + Anti-IgG2a 10 mg/kg IP BIW, day 23 of treatment
  Tumor Volume: 2794 ± 665 mm^3
Gr 4: Compound I 30 mg/kg PO QD + Anti-IgG2a 10 mg/kg IP BIW, day 25 of treatment
  Tumor Volume: 1551 mm^3
Gr 4: Compound I 30 mg/kg PO QD + Anti-IgG2a 10 mg/kg IP BIW, day 28 of treatment
  Tumor Volume: 2589 mm^3
Gr 4: Compound I 30 mg/kg PO QD + Anti-IgG2a 10 mg/kg IP BIW, day 30 of treatment
  Tumor Volume: 3550 mm^3
[4]
  CR (complete regression): 12.5%
  ORR (CR + PR): 12.5%
